Read-outs that look alike come from different tables or passages of the source.

Assay [1] deals with RT DNA polymerase activity (Human immunodeficiency virus type 1 group M subtype B, UniProt P04585). As to the kind of experiment: RT RNA-dependent DNA polymerase activity. Format: biochemical, HIV-1.
The test system of assay [2] is RT-RNase H. As to the kind of experiment: RT-RNase H inhibition of other RNHIs. It is filed as biochemical, HIV-1.
The target in assay [3] is RT-RNase H. The conditions noted are these: read-out: IC50, RT-RNase H, cited from earlier work.
Setting [4] is: read-out: In vitro IC50 RT DNA pol, pH 7.4, 1 mM Mg2+.

`O=C(O)Cc1cc(=O)oc2c(O)c(O)ccc12` [Compound F3284-8495, (7,8-dihydroxy-2-oxo-2H-chromen-4-yl)acetic acid]: the IC50 in assay [1] was greater than 10000 nM. The “Inhibition of RT DNA polymerase activity” value in assay [1] (at 10 µM, the highest concentration tested) is “no detectable inhibition”.
On to `O=c1cc(CN2CCN(C(c3ccccc3)c3ccccc3)CC2)c2ccc(O)c(O)c2o1` [Compound F3385-2581], for which, in assay [1] (setting [4]), the IC50 was determined as 2200 nM.
With `COc1ccc(N2CCN(Cc3cc(=O)oc4c(O)c(O)ccc34)CC2)cc1.Cl.Cl` [Compound F3385-2588], the “Inhibition of the DNA polymerase activity of RT (in words)” value in assay [1] is on record as “did not inhibit”. The IC50 in assay [1] (setting [4]) was greater than 10000 nM.
Turning to `O=c1cc(CN2CCN(c3cccc(Cl)c3)CC2)c2ccc(O)c(O)c2o1` [Compound F3385-2590], in assay [1] (setting [4]), the IC50 worked out at 2500 nM.
As to `CC(C)c1ccc(O)c(=O)c(O)c1` [β-Thujaplicinol, β-thujaplicinol], the “Fold greater activity than F3284-8495 against the RNase H of full-length RT” value in assay [2] is “greater than 20 fold”. The IC50 in assay [3] (31) was 210 nM.
For the compound manicol, the IC50 in assay [3] is 600 nM.

Values taken from article PMC4116331 (Journal of molecular biology, 2014).
